Like-named read-outs stand apart in the source and are kept apart here.

Assay in all cases: Hits validation, dose-response cell proliferation (CellTiter-Glo)
What all share (type): cell-based

The subject of assay [1] is A673. The protocol:
(§1) For hits validation and combination study, cells were harvested and aliquoted into 384-well plates at concentrations of 750–1,500 cells per well in a total of 20 μl/well using a Matrix Wellmate (Thermo Scientific). Five μl of culture media containing either vehicles or drug were added to each well the next day (drug concentrations range from 1 nmol/L to 50 μmol/L). For combination study, selected drugs were archived in robotically accessible plates, to which media was added in preparation for addition to master plates by a Nimbus 96 liquid-dispensing workstation (Hamilton). Liquid transfers to dilution and assay plates were handled using the same workstation. Each 384-well master plate contained four 9 by 9 dose-matrix blocks, with eight serial two-fold dilutions (concentrations range from 7.8 nmol/L to 1 μmol/L). Additional wells were reserved for untreated, and vehicle-treated control wells. Cell proliferation was evaluated using Cell-Titer Glo® reagents (Promega). IC50 values were determined for each drug using SigmaPlot (Systat Software). The combination index values were calculated using SigmaPlot (Systat Software) and CompuSyn.

The subject of assay [2] is CHLA-258. On the procedure:
as §1

The subject of assay [3] is COG-E-352. The protocol:
as §1

Assay [4] relates to Hs 822.T. The protocol:
as §1

The subject of assay [5] is Hs 863.T. On the procedure: as §1
Assay [6] has as its system RD-ES. On the procedure: as §1
In assay [7] the test system is SK-ES-1. The settings on record: 12-point dose-response 50 μmol/L to 1 nmol/L, mean ± SD. The protocol:
as §1

The test system of assay [8] is TC-71. On the procedure: as §1
The subject of assay [9] is Hs 919.T. The protocol:
These drugs were chosen based on their known mechanisms and safety profiles. We also tested the synergy between these drug hits (Supplementary Figures S6–S11). […] We evaluated the anti-proliferation effect in combination treatments using the EWS and control cell lines.
as §1

Where [10] appears, read: Homo sapiens, A673, 12-point dose-response 50 μmol/L to 1 nmol/L, mean ± SD.
The mark [11] stands for this setting: 12-point dose-response 50 μmol/L to 1 nmol/L, mean ± SD.
Setting [12] is: control cell line, 12-point dose-response, mean ± SD.
Setting [13] is: RD-ES, 12-point dose-response 50 μmol/L to 1 nmol/L, mean ± SD.
[14] abbreviates: TC-71, 12-point dose-response 50 μmol/L to 1 nmol/L, mean ± SD.

Regarding `COc1cc2nc(N(C)CCCNC(=O)C3CCCO3)nc(N)c2cc1OC` (centres unmarked) [Alfuzosin], the IC50 in [1] (setting [10]), in [2] (setting [11]), in assay [3] (setting [11]), in assay [4] (setting [12]), in assay [5] (setting [12]) and in assay [6] (setting [13]) was above 50 µM in each case. In addition, the IC50 in [7] (Homo sapiens, SK-ES1) is above 50 µM; in [8] (setting [14]), above 50 µM; in assay [9] (setting [12]) it was above 50 µM.

For `COc1ccc(C[C@H]2NC[C@H](O)[C@H]2OC(C)=O)cc1` [Anisomycin], the IC50 in assay [1] (setting [11]) came out at 0.12 ± 0.01 µM; in assay [2] (setting [11]), 0.08 ± 0.01 µM; in assay [3] (setting [11]) it was 0.02 ± 0.01 µM; in [4] (setting [12]), 0.15 ± 0.05 µM; in assay [5] (setting [12]), 0.2 ± 0.01 µM; in [6] (setting [11]) it was 0.15 ± 0.02 µM. Further, the concentration for half-maximal inhibition (IC50) is 0.2 ± 0.01 µM in assay [7], 0.04 ± 0.01 µM in assay [8] (setting [11]) and 0.15 ± 0.02 µM in [9] (setting [12]).

For the molecule `CC(C)C[C@H](NC(=O)[C@H](Cc1ccccc1)NC(=O)c1cnccn1)B(O)O` [Bortezomib], the concentration for half-maximal inhibition (IC50) was 0.01 ± 0.003 µM in [1] (setting [10]); 0.007 µM in assay [2] (setting [11]); 0.005 µM in assay [3] (setting [11]); 0.45 ± 0.08 µM in assay [4] (setting [12]); 0.18 ± 0.03 µM in assay [5] (setting [12]); 0.01 ± 0.001 µM in assay [6] (setting [13]). The concentration for half-maximal inhibition (IC50) in assay [7] (Homo sapiens, SK-ES1) is 0.02 ± 0.002 µM; in assay [8] (setting [14]), 0.005 ± 0.0081 µM; in assay [9] (setting [12]) it was 0.17 ± 0.003 µM.

`CN(C)CCCN1c2ccccc2Sc2ccc(Cl)cc21` [Chlorpromazine]: the IC50 was 10.6 ± 2.15 µM in [1] (setting [10]); 15.3 ± 4.55 µM in assay [2] (setting [11]); 16.1 ± 2.29 µM in assay [3] (setting [11]); 16.8 ± 3.22 µM in assay [4] (setting [12]); 18.4 ± 3.07 µM in assay [5] (setting [12]); above 25 µM in assay [6] (setting [13]). In addition, the IC50 in assay [7] (Homo sapiens, SK-ES1) was above 25 µM; in [8] (setting [14]), 17.6 ± 8.63 µM; in [9] (setting [12]), 15.5 ± 2.09 µM.

Regarding `COc1cccc2c1C(=O)c1c(O)c3c(c(O)c1C2=O)C[C@@](O)(C(C)=O)C[C@@H]3O[C@H]1C[C@H](N)[C@H](O)[C@H](C)O1` [Daunorubicin], the IC50 in assay [1] (setting [10]) was 0.05 ± 0.02 µM; in assay [2] (setting [11]), below 0.003 µM; in [3] (setting [11]), below 0.003 µM; in assay [4] (setting [12]), 0.15 ± 0.12 µM; in assay [5] (setting [12]), 0.18 ± 0.08 µM; in assay [6] (setting [13]) it was 0.05 ± 0.03 µM. Further, the IC50 in assay [7] (Homo sapiens, SK-ES1) amounted to 0.04 ± 0.03 µM; in assay [8] (setting [14]) it was 0.0046 ± 0.0004 µM; in assay [9] (setting [12]), 0.42 ± 0.15 µM.

Turning to `COc1cc2nc(N3CCN(C(=O)C4COc5ccccc5O4)CC3)nc(N)c2cc1OC` (centres unmarked) [Doxazosin], the IC50 in assay [1] (setting [10]) is 5.6 ± 1.52 µM; in assay [2] (setting [11]), 16.1 ± 6.78 µM; in assay [3] (setting [11]), 17.1 ± 6.58 µM; in assay [4] (setting [12]) it was 15.7 ± 2.12 µM; in [5] (setting [12]) it was 14.6 ± 3.02 µM; in assay [6] (setting [13]) it was above 25 µM. Also, the IC50 in [7] (Homo sapiens, SK-ES1) is 20.4 ± 5.87 µM; in [8] (setting [14]), 22.5 ± 9.35 µM; in [9] (setting [12]) it was 18.5 ± 3.27 µM.

`COc1c2ccoc2nc2c(OC)c(OCC(O)C(C)(C)O)ccc12` (centres unmarked) [Evoxine]: the half-inhibitory concentration (IC50) in [1] (setting [10]), in assay [2] (setting [11]), in assay [3] (setting [11]), in [4] (setting [12]), in assay [5] (setting [12]) and in assay [6] (setting [13]) was above 50 µM in each case. Further, the IC50 was above 50 µM in [7] (Homo sapiens, SK-ES1); above 50 µM in assay [8] (setting [14]); above 50 µM in assay [9] (setting [12]).

On to `O=C(O)CCC(=O)c1ccc(-c2ccccc2)cc1` [Fenbufen], for which the IC50 in assay [1] (setting [10]), in [2] (setting [11]), in assay [3] (setting [11]), in [4] (setting [12]), in assay [5] (setting [12]) and in assay [6] (setting [13]) was above 50 µM each time. Besides, the IC50 in [7] (Homo sapiens, SK-ES1) is above 50 µM; in assay [8] (setting [14]), above 50 µM; in assay [9] (setting [12]) it was above 50 µM.

Take (R)-Apomorphine: the IC50 in assay [1] stood at 8.52 ± 2.14 µM; in assay [2], 14.7 ± 6.86 µM; in assay [3], 4.01 ± 1.55 µM; in assay [4] it was 14.3 ± 1.47 µM; in [5], 15.2 ± 2.19 µM; in assay [6] it was 7.85 ± 1.69 µM. For the same molecule, the values for the 50% inhibitory concentration (IC50) in [8] and in assay [9] were 17.3 ± 2.21 µM and 16.7 ± 3.02 µM, respectively.

Source of the values: publication PMC5354814, “In silico and in vitro drug screening identifies new therapeutic approaches for Ewing sarcoma” (Oncotarget, 2016).
